Where “and” joins values, the source holds several entries; their conditions need not be identical. Identical values can stand only once. Inconclusive results are not listed. Calls of active or inactive are those of the source. No rule for the calls is given here.

The subject of the first assay is C. albicans CaCi-8 + fluconazole, Alamar Blue growth, 48 h. Put plainly: PubChem AID 493064.
Settings: not given
With `COc1ccc(C(=O)N2CCN(c3ccccn3)CC2)cc1`, the AC50 was 7.53 µM.

For the compound `COC(=O)Cn1nc(-c2ccccc2)c2ccccc21`, the half-maximal activity concentration (AC50) is 3.13 µM.

With `N#Cc1ccc(N2CCN(C(=O)c3ccc(Cl)cc3)CC2)nc1`, the AC50 is > 26 µM (inactive).

For `CC1CCN(C(=O)Cn2c3ccccc3c3nc4n(c(=O)c32)CCS4)CC1`, the AC50 was 8.88 µM.

With `O=C(Cn1nc(-c2ccccc2)c2cc(Cl)ccc21)N1CCOCC1`, the AC50 was > 26 µM (inactive).

For `O=C(c1ccc(Cl)cc1)N1CCN(c2nc3ccccc3s2)CC1`, the concentration at half-maximal activity (AC50) was 4.94 µM.

For `O=C(O)c1nn(Cc2ccc(Cl)cc2)c2ccccc12`, the AC50 is > 26 µM (inactive).

Test system in a further assay: not listed separately
Put plainly: PubChem AID 493064. As to conditions: C. albicans CaCi-8 + fluconazole, Alamar Blue growth, 48 h; at 26 µM (top of the series).
Consider `CCCCC(=O)N1CCN(c2ccccn2)CC1`, for which the activity change, negative = inhibition was -12.5% (inactive).

For the compound `Cc1ccnc(N2CCN(C(=O)c3ccc(Cl)cc3)CC2)c1`, the activity change, negative = inhibition is -6.71% (inactive).

As for `O=C(Cn1nc(C(=O)N2CCCCC2)c2ccccc21)N1CCOCC1`, the activity change, negative = inhibition was -1.16% (inactive).

For `CCOC(=O)c1c2ccccc2nn1Cc1ccc(Cl)cc1`, the activity change, negative = inhibition was 5.94% (inactive).

Consider `O=C(c1ccc(Cl)cc1)N1CCN(c2cccc(C(F)(F)F)n2)CC1`, for which the activity change, negative = inhibition was -8.21% (inactive).

With `O=C(Cn1nc(-c2ccccc2)c2ccccc21)NCc1ccc(Cl)cc1`, the activity change, negative = inhibition was -6.6% (inactive).

Regarding `O=C(Cn1c2ccc(F)cc2c2nc3n(c(=O)c21)CCS3)N1CCCCC1`, the activity change, negative = inhibition is 8.36% (inactive).

Turning to `CC(C)C(=O)N1CCN(c2ccccn2)CC1`, the activity change, negative = inhibition is -2.77% (inactive).

As to `COC(=O)Cn1c(-c2ccccc2)nc2ccccc21`, the activity change, negative = inhibition is -13.8% (inactive).

In the case of `O=C(O)Cn1nc(-c2ccccc2)c2ccccc21`, the activity change, negative = inhibition was -17.8% (inactive).

As to `COC(=O)Cn1nc(C)c2ccccc21`, the activity change, negative = inhibition was -17.2% (inactive).

Take `O=C(c1cccc(Cl)c1)N1CCN(c2ccccn2)CC1`: the activity change, negative = inhibition was -1.33% (inactive).

As to `CCN(CC)C(=O)Cn1c2ccccc2c2nc3n(c(=O)c21)CCS3`, the activity change, negative = inhibition is 8.8% (inactive) and 7.89% (inactive).

Values taken from PubChem BioAssay AID493064 (Broad Institute, 2011).
